The target of one experiment is T1, ELG3/V5-His (Homo sapiens, UniProt Q9NXB9).
T1 construct: made in house; host or cells: Saccharomyces cerevisiae (INVSc1), microsomal fraction
T1 sequence (Q9NXB9 1-296): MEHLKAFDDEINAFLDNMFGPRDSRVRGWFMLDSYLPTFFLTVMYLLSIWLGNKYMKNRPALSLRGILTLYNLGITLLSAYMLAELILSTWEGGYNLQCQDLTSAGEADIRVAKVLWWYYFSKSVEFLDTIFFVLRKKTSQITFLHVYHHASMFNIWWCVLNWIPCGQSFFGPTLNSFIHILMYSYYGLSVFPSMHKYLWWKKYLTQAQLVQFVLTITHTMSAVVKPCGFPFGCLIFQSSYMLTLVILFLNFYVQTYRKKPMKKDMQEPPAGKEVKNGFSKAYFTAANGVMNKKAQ
The experiment in a line: Elongation of [1-14C]20:5n-3 in microsomes of yeast expressing ELG3/V5-His. The class given is biochemical. The following applies: for % conversion 24:5n-3 / % conversion 22:5n-3 / % conversion Total: substrate [1-14C]20:5n-3 7.2 μM; for % conversion 24:5n-3: control 5.0; for % conversion 22:5n-3: control 13.7; for % conversion Total: control 18.7. Here is the method: A sulphoxide derivative of S-propylbutylethylthiocarbamate (pebulate sulphoxide) was obtained from Zeneca Agrochemicals, UK, and dissolved in ethanol at a concentration of 5 mM.
A 51 culture of Saccharomyces cerevisiae transformed with pTh1017.1 encoding ELG3/V5-His was started with a cell density of approximately 3.2×10^5 cells/ml (O.D.600 0.4) using SC-U medium with 1% raffinose. After 8 h of incubation at 30° C. in an orbital shaker at 270 rpm, galactose was added to a final concentration of 2%. Yeast were incubated for an additional 12 h until they were harvested by centrifugation at 2060×g for 10 minutes at 4° C. and washed with water. The cell pellet was resuspended in ⅓ of its volume in a pH 7.2 isolation buffer (80 mM Hepes-KOH, 10 mM KCl, 320 mM sucrose, 2 mM PMSF and a protease inhibitor cocktail). The cell suspension was poured into a mortar containing liquid N2 and ground with sand using a ceramic pestle. The yeast powder was transferred to a conical test tube, to which ⅔ of the pellet volume of isolation buffer was added. The sand was removed by centrifugation at 228×g for 1 min and the suspension centrifuged at 10,000×g for 20 min to separate cell debris, nuclei and mitochondria. The supernatant was centrifuged at 106,000×g for 1.5 h to obtain the microsomal pellet, which was resuspended in storage buffer (80 mM Hepes-KOH, 10 mM KCl, 320 mM sucrose, 1 mM PMSF and a protease inhibitor cocktail) to a final protein concentration of 20 μg/μl. The protein concentration was measured by the method of Lowry et al. (1951, .J Biol. Chem., 193: 265-275) with bovine serum albumin as standard.
The activity of ELG3/V5-His was determined by measuring the conversion of [1-^14C]20:5n-3 to [1-^14C]22:5n-3 and [1-^14C]24:5n-3. Reactions were started by adding 500 μg of yeast microsomal protein to pre-incubated tubes containing 0.20 μCi of the substrate fatty acid at a final concentration of 7.2 μM in 0.25 ml of 80 mM Hepes-KOH (pH 7.2) with 43 mM MgCl2, 1.0 mM ATP,500 μM NADPH, 10 μM coenzyme A, 100 μM […] (as lithium salt) and pebulate sulphoxide at concentrations that ranged between 1 to 100 μM. The tubes were vortexed vigorously and after 30 min incubation at 37° C. in a shaking water bath, the reactions were stopped by the addition of 2 ml of 10% (w/v) KOH in ethanol. Lipids in the incubation mixture were saponified at 80° C. for 45 min under N2. The samples were then left in ice for 5 min before acidification with 750 μl of concentrated HCl. […] The fatty acid methyl esters were analyzed by HPLC as described in Example 19.
The enzyme activity was expressed in percent conversion of radiolabelled 20:5n-3 into its elongation products. Alternatively, it can be expressed in pmol of the fatty acids produced/mg microsomal protein/min.

Another experiment deals with rat liver elongase. As to the kind of experiment: Elongation of [1-14C]20:5n-3 in rat liver microsomes. The experiment is classed as biochemical. The following applies: for % conversion 24:6n-3: delta-6-desaturation product of 24:5n-3, control 9.1; for % conversion 22:5n-3 / % conversion 24:5n-3 / % conversion Total: substrate [1-14C]20:5n-3; for % conversion 22:5n-3: control 11.6; for % conversion 24:5n-3: control 39.7; for % conversion Total: control 60.4. Here is the method:
Wistar rats under light halothane (15% in mineral oil) anesthesia were sacrificed by exsanguination during periods of high enzyme activity. Livers were immediately rinsed with cold 0.9% NaCl solution, weighed and minced with scissors. All procedures were performed at 4° C. unless specified-otherwise. Livers were homogenized in a solution (1:3 w/v) containing 0.25 M sucrose, 62 mM potassium phosphate buffer (pH 7.0), 0.15 M KCl, 1.5 mM N-acetylcysteine, 5 mM MgCl2, and 0.1 mM EDTA using 4 strokes of a Potter-Elvehjem tissue homogenizer. The homogenate was centrifuged at 10,400×g for 20 min to pellet mitochondria and cellular debris. The supernatant was filtered through a 3-layer cheesecloth and centrifuged at 105,000×g for 60 min. The microsomal pellet was gently resuspended in the same homogenization solution with a small glass/teflon homogenizer and stored at −80° C. The absence of mitochondrial contamination was enzymatically assessed as described elsewhere (Kilberg, M. S. and Christensen H. N., 1979, Biochemistry, 18: 1525-1530). The protein concentration was measured by the method of Lowry et al (1951, J. Biol. Chem., 193: 265-275) with bovine serum albumin as standard.
Reactions were performed using 500 μg of rat liver microsomal protein with the same concentrations of pebulate sulphoxide, radiolabelled fatty acid, conditions and procedures described in Example 21.
The enzyme activity was expressed in percent conversion of radiolabelled 20:5n-3 into its elongation and final delta-6-desaturation products (i.e., 22:5n-3, 24:5n-3 and 24:6n-3).
(In general: Microsomes from liver hold many membrane-bound enzymes, among them those of drug oxidation.)

For another experiment, the system named is 18:3n-3. The experiment in a line: Elongation of [1-14C]18:3n-3 in yeast expressing human elongases (RP-HPLC). The following applies: for Percent Elongation of 18:3n-3 to 20:3: product 20:3n-3.
The next experiment deals with 20:5n-3. As to the kind of experiment: Elongation of [1-14C]20:5n-3 in yeast expressing human elongases (RP-HPLC). The following applies: untagged elongase, 25 μM substrate.
The next experiment relates to 20:4n-6. The experiment in a line: Elongation of [1-14C]20:4n-6 in yeast expressing human elongases (RP-HPLC). The following applies: for Percent Elongation of 20:4n-6 to 22:4: product 22:4n-6.
The subject of the next experiment is 18:3n-6. As to the kind of experiment: Elongation of [1-14C]18:3n-6 in yeast expressing human elongases (RP-HPLC). The following applies: untagged elongase, 25 μM substrate; for Percent Elongation of 18:3n-6 to 20:3: product 20:3n-6.
[1] abbreviates: untagged elongase, 25 μM substrate.

From the text for 18:3n-3: (§1) For the expression of ELG1, ELG2, ELG3, ELG4, ELG5, ELG6 or ELG7 the yeast were transformed with pTh1009.1, pTh1014.1, pTh1015.1, pTh1021.1, pTh1018.1, pTh1041.1 or pTh1044.1, respectively. For the expression of ELG1/V5-His, ELG2/V5-His, ELG3/V5-His, ELG4/V5-His, ELG5/V5-His, ELG6/V5 -His or ELG7/V5-His the yeast were transformed with pTh1009.2, pTh1014.2, pTh1017.1, pTh1021.2, pTh1019.1, pTh1042.1 or pTh1045.1, respectively. Recombinant yeast cells were selected on SC-U medium.
(§2) Transformed yeast (approximately 3.2×10^6 cells/ml; O.D.600 0.4) were incubated in a 125 ml Erlenmeyer containing 10 ml of SC-U medium with 1% raffinose, 1% tergitol and 25 μM of the lithium salts of either [1-^14C]18:3n-3 (1 μCi), [1-^14C]18:3n-6 (1 μCi), [1-^14C]20:4n-6 (2 μCi), or [1-^14C]20:5n-3 (2 μCi). After 4 h incubation in an orbital incubator at 270 rpm and 30° C., cells reached the log phase and the transgene, expression was induced with galactose 30° C., cells reached the log phase and the transgene expression was induced with galactose (2% final concentration). The yeast were incubated for an additional 19 h and then harvested by centrifugation at 5000×g for 10 minutes at 4° C.
(§3) Cells were washed with Tris-HCl buffer (100 mM, pH 8.0) containing 0.1% BSA and total lipids were extracted as described below. The radioactivity from aliquots of the incubation medium, supernatant and cells was determined by liquid scintillation counting using a LS6500-Scintillation System (Beckman).
(§4) Alternatively, cells were resuspended in 1.5 ml of water and saponified with 2 ml of 10% KOH in ethanol. The total lipid extracts or the free fatty acids from the saponified samples were methylated using boron trifluoride in methanol at 90° C. for 30 min. The resultant methyl esters (FAME) were analyzed as described below.
(§5) Analyses of radiolabelled FAME were carried out on a Hewlett Packard 1090, series II chromatograph equipped with a diode array detector set at 205 nm, a radioisotope detector (model 171, Beckman, CA) with a solid scintillation cartridge (97% efficiency for ^14C-detection) and a reverse phase ODS (C-18) Beckman column (250 mm×4.6 mm i.d.; 5 μm particle size) attached to a pre-column with a μBondapak C-18 (Beckman) insert. FAME were separated isocratically with acetonitrile/water (95.5 v/v) at a flow rate of 1 ml/min and were identified by comparison with authentic standards. Alternatively, the eluted FAME were collected and the solvent evaporated. FAME were re-dissolved in hexane for further analysis by gas chromatography.
From the text for 18:3n-6: as §1, §2, §3, §4, §5
From the text for 20:4n-6: as §1, §2, §3, §4, §5

Turning to `CCCCN(CC)C(=O)[S+]([O-])CCC` (centres unmarked) [Pebulate sulphoxide, sulphoxide derivative of S-propylbutylethylthiocarbamate], the “% conversion 24:5n-3” value turned out to be 5.6% on ELG3/V5-His (1 μM); 6.6% on ELG3/V5-His (10 μM); 4.6% on ELG3/V5-His (50 μM); 4.3% at ELG3/V5-His (100 μM); 47.5% in the experiment on rat liver elongase (1 μM); 47.2% with rat liver elongase (10 μM). The figures for the “% conversion 24:5n-3” value with rat liver elongase (50 μM) and in the experiment with rat liver elongase (100 μM) were 48.7% and 28.0%, respectively. In addition, the “% conversion 22:5n-3” value on ELG3/V5-His (1 μM) is recorded as 13.8%; on ELG3/V5-His (10 μM) it was 12.8%; on ELG3/V5-His (50 μM), 11.3%; on ELG3/V5-His (100 μM), 9.4%; with rat liver elongase (1 μM), 12.5%; with rat liver elongase (10 μM), 12.5%. In addition, the “% conversion 22:5n-3” value with rat liver elongase (50 μM) is recorded as 12.2%; in the experiment on rat liver elongase (100 μM) it was 10.2%. The “% conversion Total” value on ELG3/V5-His (1 μM) came to 19.4%; on ELG3/V5-His (10 μM) it was 19.4%; on ELG3/V5-His (50 μM), 15.9%; at ELG3/V5-His (100 μM), 13.7%; with rat liver elongase (1 μM) it was 69.3%; with rat liver elongase (10 μM) it was 70.7%. The entries for the “% conversion Total” value with rat liver elongase (50 μM) and in the experiment with rat liver elongase (100 μM) were 68.8% and 42.7%, respectively. Besides, the “reduction of elongation (ELG3/V5-His activity)” value at ELG3/V5-His (100 μM, 20:5n-3 as substrate) is recorded as “approximately 27%”. In addition, the “% conversion 24:6n-3” value was 9.6% with rat liver elongase (1 μM), 10.9% with rat liver elongase (10 μM), 7.9% in the experiment with rat liver elongase (50 μM) and 4.5% in the experiment with rat liver elongase (100 μM). For the same molecule, the “reduction of elongation (rat liver elongase activity)” value with rat liver elongase (100 μM, 20:5n-3 as substrate) is “approximately 30%”.

B1: ELG4: human PUFA elongase (SEQ ID NO: 5) expressed in yeast from plasmid pTh1021.1 (protein)
chain: MAFSDLTSRTVHLYDNWIKDADPRVEDWLLMSSPLPQTILLGFYVYFVTSLGPKLMENRKPFELKKAMITYNFFIVLFSVYMCYEFVMSGWGIGYSFRCDIVDYSRSPTALRMARTCWLYYFSKFIELLDTIFFVLRKKNSQVTFLHVFHHTIMPWTWWFGVKFAAGGLGTFHALLNTAVHVVMYSYYGLSALGPAYQKYLWWKKYLTSLQLVQFVIVAIHISQFFFMEDCKYQFPVFACIIMSYSFMFLLLFLHFWYRAYTKGQRLPKTVKNGTCKNKDN
modifications: human
In the case of B1, the “Percent Elongation of 18:3n-3 to 20:3” value with 18:3n-3 (setting [1]) is on record as 10%. Besides, the “Percent Elongation of 18:3n-3 to 22:3” value with 18:3n-3 (untagged elongase, 25 μM substrate, product 22:3n-3) was 4%. In the experiment with 20:5n-3 (product 22:5n-3), the “Percent Elongation of 20:5n-3 to 22:5” value amounted to 15%. In addition, in the experiment on 20:5n-3 (product 24:5n-3), the “Percent Elongation of 20:5n-3 to 24:5” value is reported as 3%. For the same molecule, the “Percent Elongation of 20:4n-6 to 22:4” value in the experiment on 20:4n-6 (V5-His tagged elongase) was determined as 12%; in the experiment on 20:4n-6 (setting [1]), 24%. Further, the “Percent Elongation of 20:4n-6 to 24:4” value in the experiment with 20:4n-6 (untagged elongase, 25 μM substrate, product 24:4n-6) amounted to 2%. Also, the “Percent Elongation of 18:3n-6 to 20:3” value in the experiment with 18:3n-6 came out at 20%. The “Percent Elongation of 18:3n-6 to 22:3” value in the experiment on 18:3n-6 (product 22:3n-6) is 4%.

B2: ELG6: human PUFA elongase (SEQ ID NO: 9) expressed in yeast from plasmid pTh1041.1 (protein)
chain: MVTAMNVSHEVNQLFQPYNFELSKDMRPFFEEYWATSFPIALIYLVLIAVGQNYMKERKGFNLQGPLILWSFCLAIFSILGAVRMWGIMGTVLLTGGLKQTVCFINFIDNSTVKFWSWVFLLSKVIELGDTAFIILRKRPLIFIHWYHHSTVLVYTSFGYKNKVPAGGWFVTMNFGVHAIMYTYYTLKAANVKPPKMLPMLITSLQILQMFVGAIVSILTYIWRQDQGCHTTMEHLFWSFILYMTYFILFAHFFCQTYIRPKVKAKTKSQ
modifications: human
For the molecule B2, the “Percent Elongation of 18:3n-3 to 20:3” value in the experiment with 18:3n-3 (V5-His tagged elongase) and in the experiment with 18:3n-3 (setting [1]) was 3% throughout. The “Percent Elongation of 18:3n-6 to 20:3” value in the experiment with 18:3n-6 is listed as 2%.

B3: ELG7: human PUFA elongase (SEQ ID NO: 12) expressed in yeast from plasmid pTh1044.1 (protein)
chain: MGLLDSEPGSVLNVVSTALNDTVEFYRWTWSIADKRVENWPLMQSPWPTLSISTLYLLFVWLGPKWMKDREPFQMRLVLIIYNFGMVLLNLFIFRELFMGSYNAGYSYICQSVDYSNNVHEVRIAAALWWYFVSKGVEYLDTVFFILRKKNNQVSFLHVYHHCTMFTLWWIGIKWVAGGQAFFGAQLNSFIHVIMYSYYGLTAFGPWIQKYLWWKRYLTMLQLIQFHVTIGHTALSLYTDCPFPKWMHWALIAYAISFIFLFLNFYIRTYKEPKKPKAGKTAMNGISANGVSKSEKQLMIENGKKQKNGKAKGD
modifications: human
Consider B3, for which the “Percent Elongation of 18:3n-3 to 20:3” value in the experiment on 18:3n-3 (V5-His tagged elongase) was 4%; with 18:3n-3 (setting [1]), 5%.

These data come from US7297523B2, “Human elongase genes and uses thereof” (Xenon Pharmaceuticals Inc., priority 2000, dated 2007).
